Assays:
[1] = biological target: T1, human blood platelet PDE5 (Homo sapiens, UniProt O76074); assay: PDE5 enzyme inhibition activity test (scintillation proximity); type: biochemical
T1 construct: obtained by suitably treating various tissues and separating the enzyme with FPLC; from tissue; host or cells: human blood platelets
Outline: (§1)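 Enzymes were used immediately after isolation: PDE6 from bovine retina, PDE5 from human platelets. Each was incubated 30 min at 30 °C with varying inhibitor concentrations and a small amount of substrate in Tris/HCl pH 7.5 buffer with MgCl2 and EGTA. Reactions were quenched with zinc-sulphate yttrium silicate SPA beads and product counted by scintillation.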

[2] = biological target: T2, PDE6 in bovine retina (Bos taurus, UniProt P11541+P23439); assay: PDE6 enzyme inhibition activity test (scintillation proximity); type: biochemical; conditions: for IC50: PDE6 separated from bovine retina, read-out: PDE6 IC50; for PDE6 IC50/PDE5 IC50: selectivity, ratio of IC50 PDE6/IC50 PDE5
T2 construct: obtained by suitably treating various tissues and separating the enzyme with FPLC; from tissue; host or cells: bovine retina
T2 sequence (P11541 2-856 limits assumed): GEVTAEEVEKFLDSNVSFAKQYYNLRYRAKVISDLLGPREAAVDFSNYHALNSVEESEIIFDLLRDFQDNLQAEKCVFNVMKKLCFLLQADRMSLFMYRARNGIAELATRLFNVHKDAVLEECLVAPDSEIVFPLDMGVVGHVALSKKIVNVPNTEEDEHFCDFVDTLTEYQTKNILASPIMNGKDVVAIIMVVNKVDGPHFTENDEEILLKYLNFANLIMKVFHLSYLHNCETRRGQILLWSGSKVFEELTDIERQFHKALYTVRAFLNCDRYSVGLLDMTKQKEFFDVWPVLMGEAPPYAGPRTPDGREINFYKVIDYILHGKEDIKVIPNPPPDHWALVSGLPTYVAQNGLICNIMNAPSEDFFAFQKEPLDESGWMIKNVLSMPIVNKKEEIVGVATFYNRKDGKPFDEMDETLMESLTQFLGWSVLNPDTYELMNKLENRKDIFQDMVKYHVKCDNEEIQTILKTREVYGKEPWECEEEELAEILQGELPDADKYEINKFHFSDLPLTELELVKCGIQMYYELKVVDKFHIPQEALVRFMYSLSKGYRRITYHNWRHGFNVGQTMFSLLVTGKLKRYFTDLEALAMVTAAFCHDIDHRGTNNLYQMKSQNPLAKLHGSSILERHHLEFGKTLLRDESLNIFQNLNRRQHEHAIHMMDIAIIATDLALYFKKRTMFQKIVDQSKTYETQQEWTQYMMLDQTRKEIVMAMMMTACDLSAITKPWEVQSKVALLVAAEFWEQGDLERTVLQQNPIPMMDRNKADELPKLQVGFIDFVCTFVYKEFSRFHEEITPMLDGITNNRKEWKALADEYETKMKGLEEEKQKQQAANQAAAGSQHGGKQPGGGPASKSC
T2 sequence (P23439 2-850 limits assumed): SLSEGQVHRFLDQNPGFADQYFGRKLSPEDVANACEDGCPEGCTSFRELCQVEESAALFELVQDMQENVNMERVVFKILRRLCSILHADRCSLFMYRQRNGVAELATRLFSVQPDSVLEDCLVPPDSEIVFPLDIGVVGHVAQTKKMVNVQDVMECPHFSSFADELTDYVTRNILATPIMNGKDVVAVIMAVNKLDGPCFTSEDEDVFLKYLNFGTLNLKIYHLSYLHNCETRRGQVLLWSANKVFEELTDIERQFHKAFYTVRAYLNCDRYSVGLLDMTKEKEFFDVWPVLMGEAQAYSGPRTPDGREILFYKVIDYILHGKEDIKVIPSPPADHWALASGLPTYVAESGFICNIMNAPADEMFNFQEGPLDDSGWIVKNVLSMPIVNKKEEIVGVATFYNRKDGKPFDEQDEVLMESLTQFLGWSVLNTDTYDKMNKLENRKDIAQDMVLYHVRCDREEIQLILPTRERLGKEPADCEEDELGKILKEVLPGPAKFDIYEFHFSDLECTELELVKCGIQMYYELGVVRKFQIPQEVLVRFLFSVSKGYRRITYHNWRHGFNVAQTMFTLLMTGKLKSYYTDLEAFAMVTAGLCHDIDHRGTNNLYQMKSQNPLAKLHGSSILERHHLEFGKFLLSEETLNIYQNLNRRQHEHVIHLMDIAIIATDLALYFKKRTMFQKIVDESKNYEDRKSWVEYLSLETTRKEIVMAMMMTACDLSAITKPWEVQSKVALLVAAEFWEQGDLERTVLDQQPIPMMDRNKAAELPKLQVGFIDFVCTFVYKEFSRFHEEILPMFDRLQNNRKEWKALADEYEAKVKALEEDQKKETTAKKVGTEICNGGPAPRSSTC
Outline: as §1

Molecule `CCCOc1ccc(NC(=O)NCCN(CC)CC)cc1-c1nc(CC)c(CC)c(=O)[nH]1.O=C(O)/C=C\C(=O)O` [Example 204, 1-(2-(Diethylamino)ethyl)-3-(3-(4,5-diethyl-1,6-dihydro-6-oxopyrimidin-2-yl)-4-n-propoxyphenyl)urea maleate] has an IC50 ([1]; PDE5 table) of 0.88 nM, an IC50 ([1]; as repeated in the PDE6 table) of 0.88 nM and an IC50 [2] of 54.5 nM. The “PDE6 IC50/PDE5 IC50” value [2] was 61.9.

For `CCCOc1ccc(C(=O)N2CCN(C)CC2)cc1-c1nc(CC)c(CC)c(=O)[nH]1` [Example 205], the IC50 ([1]; PDE5 table) was 1.93 nM, the IC50 ([1]; as repeated in the PDE6 table) was 1.93 nM and the IC50 [2] was 17.2 nM. For the same molecule, the “PDE6 IC50/PDE5 IC50” value [2] was 8.9.
